This is an account of results in publication PMC11857211, “Bioprospecting Bioactive Peptides in Halobatrachus didactylus Body Mucus: From In Silico Insights to Essential In Vitro Validation” (Marine Drugs, 2025).

Details of assay [1]: method as in 2 sources, one per row (each row's own in cited_ref): ref 19 = [19]; doi:10.1016/j.procbio.2018.06.001; 19. Jin J. Ahn C. Je J. Puri Fi Cation and Characterization of Antioxidant Peptides from Enzymatically Hydrolyzed Ark Shell ( Scapharca subcrenata ) Process Biochem. 2018 72 170 176 10.1016/j.procbio. ||| ref 21 = [21]; PMID 26304349; doi:10.1016/j.foodchem.2015.07.015; 21. Zheng L. Zhao M. Xiao C. Zhao Q. Su G. Practical Problems When Using ABTS Assay to Assess the Radical-Scavenging Activity of Peptides: Importance of Controlling Reaction PH and Time Food Chem. 201. As to conditions: cited from earlier work; for ABTS antioxidant activity: ark shell (Scapharca subcrenata) peptides, values converted to the same units.

The conditions of assay [2]: ark shell (Scapharca subcrenata) peptides, values converted to the same units; cited from earlier work. The source says: In the ORAC assay, the values were 0.334 µmol TE/µmol of peptide for P1 and ...
The subject of a further assay is ACE. More on the design: method as in 2 sources, one per row (each row's own in cited_ref): ref 27 = [27]; PMID 29533693; doi:10.1080/10408398.2018.1452182; 27. Yathisha U.G. Bhat I. Karunasagar I. Mamatha B.S. Antihypertensive Activity of Fish Protein Hydrolysates and Its Peptides Crit. Rev. Food Sci. Nutr. 2019 59 2363 2374 10.1080/10408398.2018.1452182 ||| ref 28 = [28]; PMID 31671730; doi:10.3390/md17110613; 28. Abachi S. Bazinet L. Beaulieu L. Antihypertensive and Angiotensin-i-Converting Enzyme (ACE)-Inhibitory Peptides from Fish as Potential Cardioprotective Compounds Mar. Drugs 2019 17 613 10.3390/md1. The following applies: cited from earlier work.

In assay [3] the target is α-glucosidase (Saccharomyces cerevisiae, UniProt P53341). The experiment in a line: biochemical.
Description: The α-glucosidase inhibitory activity was evaluated through the following method, outlined by Vilas-Boas et al. [42]. The assay was performed in a 96-well microplate (Stansted) and incubated at 25 °C for 5 min, and the absorbance was monitored at 405 nm with a microplate reader (Synergy H1, BioTek Instruments, Winooski, VT, USA). A negative control was performed, with 50 μL of a buffer solution that replaced the peptides. […] Each sample and control analysis was triplicated. The inhibition of α-glucosidase was quantified as the concentration required to inhibit 50% of the enzymatic activity (IC50). The IC50 values were determined using non-linear modelling of the data obtained.
For assay [4], the target named is α-glucosidase. More on the design: method as in PMID 34445765. As to conditions: peptides hydrolyzed from food sources; cited from earlier work. On the procedure:
The peptides were tested for antidiabetic activity based on the capacity to inhibit 50% of […].

The mark [5] stands for this setting: peptides from fish protein hydrolysates.

Read-outs that look alike come from different tables or passages of the source. Ends that are not written are not given here.

Sequence of α-glucosidase (Saccharomyces cerevisiae, UniProt P53341) (P53341 whole entry): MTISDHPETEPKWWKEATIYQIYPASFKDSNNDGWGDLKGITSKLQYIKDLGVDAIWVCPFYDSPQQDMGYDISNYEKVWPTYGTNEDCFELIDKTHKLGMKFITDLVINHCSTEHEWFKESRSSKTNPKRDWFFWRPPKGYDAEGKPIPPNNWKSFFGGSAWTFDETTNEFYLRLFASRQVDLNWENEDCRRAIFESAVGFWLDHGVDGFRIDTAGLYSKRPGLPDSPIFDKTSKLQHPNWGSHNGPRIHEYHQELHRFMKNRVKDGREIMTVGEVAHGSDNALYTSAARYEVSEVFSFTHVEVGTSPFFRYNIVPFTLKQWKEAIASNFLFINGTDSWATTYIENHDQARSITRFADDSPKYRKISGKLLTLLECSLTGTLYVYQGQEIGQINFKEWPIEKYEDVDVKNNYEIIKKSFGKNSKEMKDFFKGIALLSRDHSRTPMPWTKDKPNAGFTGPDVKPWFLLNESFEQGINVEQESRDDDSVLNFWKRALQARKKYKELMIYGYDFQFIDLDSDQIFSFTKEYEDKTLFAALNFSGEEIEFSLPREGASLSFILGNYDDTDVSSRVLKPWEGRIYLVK

Regarding `N[C@@H](Cc1ccc(O)cc1)C(=O)O` [Tyr], the “ABTS radical scavenging value” is recorded as 2.89 µmol TE/µmol in assay [1] (pH 6.0) and 6.55 µmol TE/µmol in assay [1] (pH 8.0).
Turning to HPLDSLCL [P2], the ABTS antioxidant activity in assay [1] is on record as 0.005 µmol TE/µmol of peptide. Besides, in assay [2], the ORAC antioxidant activity is 0.239 µmol TE/µmol of peptide.
As for “HWTTQR [peptide from Syngnathus schlegeli protein hydrolysate]”, the “ACE inhibition IC50” value with ACE (setting [5]) is given as 1440 µg/mL.
As for IKPLNY, the “ACE inhibition IC50” value in the assay with ACE (synthesized peptide before/after fragmentation in digestion) was 32 µg/mL.
As to MCLDSCLL [P1], in assay [1], the ABTS antioxidant activity was 0.678 µmol Trolox equivalents (TE)/µmol of peptide. For the same compound, the ORAC antioxidant activity in assay [2] is listed as 0.334 µmol TE/µmol of peptide.
Regarding PAPPPPPP [HdPPP], the IC50 against α-glucosidase [3] (α-glucosidase IC50, 25 °C, 5 min, absorbance 405 nm, mean ± standard deviation, n = 3) was 2210 µM; on α-glucosidase [3] (α-glucosidase IC50, same result in molar units), 2210 µM.
For RVPSLM, the IC50 on α-glucosidase [4] is 23.1 µM.
In the case of “TFPHGP [peptide from Syngnathus schlegeli protein hydrolysate]”, the “ACE inhibition IC50” value in the assay on ACE (setting [5]) is reported as 600 µg/mL.
With TPSPR, the IC50 on α-glucosidase [4] is 40 µM.
